This note sets out measurements from patent US20060166237A1, “Method of detecting reaction of DNA and DNA-binding protein” (OLYMPUS CORPORATION, priority 2003, published 2006).

Common to all, as to type: cell-based
In test [1] the test system is transcription factor NF-κB in HeLa cell. Kind of test: Activation of NF-κB in HeLa cell nucleus by TNF-α and APDC stimulation, FCS readout (Experiment 7-2). How it is done: (§1) Two hours after addition of APDC, a tumor necrosis factor TNF-α is added to stimulate HeLa cell for 30 minutes, from which a nucleus extract is prepared. A nucleus extract having a concentration of 5, 10 or 20 μg is prepared. Stimulation on a cell is performed in the following two cases.
(§2) (I) The case where stimulation with only a tumor necrosis factor TNF-α is performed for 30 minutes. A concentration of a tumor necrosis factor TNF-α is 0, 10, 25 or 50 ng/ml.
(§3) (II) The case where stimulation with a tumor necrosis factor TNF-α is performed for 30 minutes, two hours after addition of APDC. A concentration of APDC is 10, 100 or 200 μM relative to a 50 ng/ml of a tumor necrosis factor TNF-α.
[Experiment 7-2] Experiment of a reaction of a (fluorescently labeled) DNA having an […] sequence and a cell nucleus extract. The Experiment was performed using a cell nucleus extract which is extracted under the condition of a different concentration of an added tumor necrosis factor TNF-α and a different concentration of added APDC.
The following shown in Table 29 are used to perform a binding reaction experiment in the same way as Experiment 3-2.

Test [2] deals with transcription factor AP-1 in HeLa cell. Kind of test: Activation of AP-1 in HeLa cell nucleus by TNF-α and APDC stimulation, FCS readout (Experiment 7-1). How it is done:
as §1, §2, §3
[Experiment 7-1] Experiment of a reaction of a (fluorescently labeled) DNA having an AP-1-binding sequence and a cell nucleus extract. The Experiment was performed using a cell nucleus extract which is extracted under the condition of a different concentration of an added tumor necrosis factor TNF-α and a different concentration of an added APDC.
The following shown in Table 28 are used to perform a binding reaction experiment in the same way as Experiment 3-1.

Test [3] shares this test system. The experiment in a line: Activation of AP-1 in HeLa cell nucleus by TNF-α stimulation time, FCS readout (Experiment 6-1). To be noted: 50 ng/ml TNF-α, nucleus extract 20 μg, DNA 20, FIG. 18. How it is done: [Experiment 6-1] Experiment of a reaction of a (fluorescently labeled) DNA having an AP-1-binding sequence and a cell nucleus extract. The Experiment was performed using a cell nucleus extract which is extracted under the condition of a different time length of stimulation with a tumor necrosis factor TNF-α.
50 ng/ml of a tumor necrosis factor TNF-α was added to HeLa cell, and the HeLa cell was stimulated for 0, 15, 30, 60, 120 or 180 minutes. Then, a nucleus extract was prepared from each HeLa cell (for preparation method, see Example 3). A concentration of a nucleus extract was set to be 20 μg.
The following shown in Table 26 are used to perform a binding reaction experiment in the same way as Experiment 3-1.

Test [4] concerns transcription factor NF-κB in HeLa cell. Kind of test: Activation of NF-κB in HeLa cell nucleus by TNF-α stimulation time, FCS readout (Experiment 6-2). To be noted: 50 ng/ml TNF-α, nucleus extract 20 μg, DNA 30, FIG. 19. How it is done:
[Experiment 6-2] Experiment of a reaction of a (fluorescently labeled) DNA having an NF-κB-binding sequence and a cell nucleus extract. The Experiment was performed using a cell nucleus extract which is extracted under the condition of a different time length of stimulation with a tumor necrosis factor TNF-α.
In the same way as Experiment 6-1, 50 ng/ml of a tumor necrosis factor TNF-α was added to HeLa cell, and the HeLa cell was stimulated for 0, 15, 30, 60, 120 or 180 minutes. Then, a nucleus extract was prepared from each HeLa cell.
The following shown in Table 27 are used to perform a binding reaction experiment in the same way as Experiment 3-2.

[5] abbreviates: HeLa cell, APDC 10, 100 or 200 μM with 50 ng/ml TNF-α.

As to `N.S=C(S)N1CCCC1` [APDC, Ammonium pyrrolidinedithiocarbamate], in test [1] (setting [5]), the “effect of APDC on activation of transcription factor NF-κB by TNF-α” value is listed as “suppresses activation of a transcription factor NF-κB by a tumor necrosis factor TNF-α”. Moreover, the “activation of transcription factor AP-1 in cell nucleus extract” value in test [2] (APDC 100 μM and 200 μM, added 2 hours before 50 ng/ml TNF-α for 30 minutes, FIG. 20) is “most activated”. Moreover, the “effect of APDC on activation of transcription factor AP-1 by TNF-α” value in test [2] (setting [5]) is “promotes activation of a transcription factor AP-1 by a tumor necrosis factor TNF-α”.

Consider tumor necrosis factor TNF-α, for which the “stimulation time giving greatest translational diffusion time (AP-1 sufficiently activated)” value in test [3] came out at 30 min. In addition, the “activation of transcription factor NF-κB in cell nucleus extract” value in test [1] (stimulation with only TNF-α 50 ng/ml for 30 minutes, FIG. 21) was “most activated”. For the same molecule, the “stimulation time giving greatest translational diffusion time (NF-κB sufficiently activated)” value in test [4] worked out at 15 min.
